{
  "source": "paper PMC6112376",
  "about": "“Comprehensive Analyses and Prioritization of Tox21 10K Chemicals Affecting Mitochondrial Function by in-Depth Mechanistic Studies” (Environmental Health Perspectives, 2018)",
  "key": {"HepG2 cells [1]": {"tested_on": "HepG2 cells", "assay": "Intracellular ATP content (cell viability) assay", "assay_type": "cell-based, human", "conditions": "Homo sapiens, HepG2, 40 h"}, "hNSC": {"tested_on": "hNSC", "assay": "MMP assay in human neural stem cells (hNSC)", "assay_type": "cell-based", "conditions": "Homo sapiens, Neural stem cell, 1 h, read-out: hNSC IC50 (MMP)"}, "[2]": {"tested_on": "Nrf2/ARE (ARE-bla HepG2 cells)", "assay": "ARE β-lactamase reporter gene assay", "assay_type": "cell-based, human", "conditions": "Homo sapiens, HepG2; 16 h incubation; mean±SD of three experiments; read-out: ARE (HepG2) EC50"}, "HepG2 cells [3]": {"tested_on": "HepG2 cells", "assay": "ROS-Glo hydrogen peroxide (ROS) assay", "assay_type": "cell-based, human"}, "[4]": {"tested_on": "HeLa cells expressing YFP-Parkin", "assay": "Parkin translocation assay", "assay_type": "cell-based, human"}, "rat primary hepatocytes [5]": {"tested_on": "rat primary hepatocytes"}, "rat primary hepatocytes [6]": {"tested_on": "rat primary hepatocytes", "assay": "MMP assay in rat primary hepatocytes", "conditions": "Rattus norvegicus, Hepatocyte"}, "HepG2 cells [7]": {"tested_on": "HepG2 cells", "conditions": "cited from earlier work"}, "[8]": {"tested_on": "isolated rat liver mitochondria", "assay": "Oxygen consumption, Clark-type oxygen electrode", "assay_type": "biochemical"}, "HepG2 cells [9]": {"tested_on": "HepG2 cells", "assay": "cells", "conditions": "Homo sapiens"}, "[10]": {"tested_on": "Caenorhabditis elegans (Bristol N2)", "assay": "C. elegans larval development and growth assay"}, "[11]": {"tested_on": "Caenorhabditis elegans strain PE255", "assay": "In vivo C. elegans ATP status assay"}, "[12]": {"tested_on": "p53 (p53-bla HCT-116 cells)", "assay": "p53 β-lactamase reporter gene assay", "assay_type": "cell-based, human", "conditions": "Homo sapiens; 16 h incubation; mean±SD of three experiments"}, "[13]": {"tested_on": "Caenorhabditis elegans strain PE255", "conditions": "PE255 [sur-5::luc+::gfp; rol-6(su1006)], Caenorhabditis elegans, in vivo"}},
  "note": "Where two headings read alike, the source gives them in different places.",
  "data": [
    {"smiles": "Nc1ccc(N)c2c1C(=O)c1ccccc1C2=O", "note": "[1,4-Diaminoanthraquinone]", "values": [
      {"measurement": "IC50", "setting": "HepG2 cells [1]; read-out: ATP (HepG2, galactose) IC50", "value": 22300, "unit": "nM"},
      {"measurement": "IC50", "setting": "HepG2 cells [1]; read-out: ATP (HepG2, glucose) IC50", "value": 24700, "unit": "nM"},
      {"measurement": "IC50", "setting": "hNSC", "value": 150, "unit": "nM"},
      {"measurement": "EC50", "setting": "[2]", "value": "22900 ± 27400", "unit": "nM"},
      {"measurement": "ROS (HepG2) EC50", "setting": "HepG2 cells [3]", "value": "Inactive"},
      {"measurement": "Parkin recruitment", "setting": "[4]", "value": "Inactive"},
      {"measurement": "MMP assays efficacy (%) Rat Hepatocytes", "setting": "rat primary hepatocytes [5]", "value": "-93±8", "unit": "%"},
      {"measurement": "Rat hepatocytes (efficacy) (MMP)", "setting": "rat primary hepatocytes [5]", "value": "3.79±1.62 ( −118±24.7 ) %"},
      {"measurement": "IC50", "setting": "rat primary hepatocytes [6]; 1 h, read-out: Rat hepatocytes IC50 (MMP)", "value": 3.79, "unit": "µM"},
      {"measurement": "IC50", "setting": "rat primary hepatocytes [6]; read-out: MMP assays IC50 (µM) Rat Hepatocytes", "value": "1.24 ± 0.76", "unit": "µM"},
      {"measurement": "MMP assays efficacy (%) qHTS-HepG2", "setting": "HepG2 cells [7]", "value": "-82±13", "unit": "%"},
      {"measurement": "IC50", "setting": "HepG2 cells [7]; read-out: MMP assays IC50 (µM) qHTS-HepG2", "value": "0.03 ± 0.01", "unit": "µM"},
      {"measurement": "Potential Mechanism", "setting": "[8]", "value": "Inactive"},
      {"measurement": "I-ADP, % of control (O2 consumption rate)", "setting": "[8]; 20 µM", "value": "89 (44.1) % of control"},
      {"measurement": "I-sub, % of control (O2 consumption rate)", "setting": "[8]; 20 µM", "value": "103 (14.2) % of control"},
      {"measurement": "II-ADP, % of control (O2 consumption rate)", "setting": "[8]; 20 µM", "value": "90 (80.2) % of control"},
      {"measurement": "II-sub, % of control (O2 consumption rate)", "setting": "[8]; 20 µM", "value": "100 (27.1) % of control"},
      {"measurement": "I-ADP, % of control (O2 consumption rate)", "setting": "[8]; 100 µM", "value": "82 (23.4) % of control"},
      {"measurement": "I-sub, % of control (O2 consumption rate)", "setting": "[8]; 100 µM", "value": "95 (11.4) % of control"},
      {"measurement": "II-ADP, % of control (O2 consumption rate)", "setting": "[8]; 100 µM", "value": "97 (35.2) % of control"},
      {"measurement": "II-sub, % of control (O2 consumption rate)", "setting": "[8]; 100 µM", "value": "95 (14.1) % of control"},
      {"measurement": "IC50", "setting": "HepG2 cells [9]; HepG2, 1 h, read-out: HepG2 IC50 Galactose (MMP)", "value": 1.13, "unit": "µM"},
      {"measurement": "IC50", "setting": "HepG2 cells [9]; HepG2, 1 h, read-out: HepG2 IC50 Glucose (MMP)", "value": 0.77, "unit": "µM"},
      {"measurement": "IC50", "setting": "HepG2 cells [9]; HepG2, read-out: MMP assays IC50 (µM) HepG2", "value": 0.22, "unit": "µM"},
      {"measurement": "Emax", "setting": "HepG2 cells [9]; HepG2, read-out: MMP assays efficacy (%) HepG2", "value": 81, "unit": "%"},
      {"measurement": "EXT: mean difference in nematode size relative to plate controls", "setting": "[10]; 0.5 µM", "value": 0.03102},
      {"measurement": "EXT: mean difference in nematode size relative to plate controls", "setting": "[10]; 1 µM", "value": 0.01427},
      {"measurement": "EXT: mean difference in nematode size relative to plate controls", "setting": "[10]; 5 µM", "value": 0.05881},
      {"measurement": "EXT: mean difference in nematode size relative to plate controls", "setting": "[10]; 10 µM", "value": -0.04953},
      {"measurement": "EXT: mean difference in nematode size relative to plate controls", "setting": "[10]; 25 µM", "value": 0.1095},
      {"measurement": "EXT: mean difference in nematode size relative to plate controls", "setting": "[10]; 50 µM", "value": 0.2596},
      {"measurement": "EXT: mean difference in nematode size relative to plate controls", "setting": "[10]; 75 µM", "value": 0.3422},
      {"measurement": "EXT: mean difference in nematode size relative to plate controls", "setting": "[10]; 100 µM", "value": 0.4149},
      {"measurement": "minimal effective concentration", "setting": "[10]; Caenorhabditis elegans, read-out: LEC EXT: lowest effect concentration for extinction, a measure of nematode size", "value": 25, "unit": "µM"},
      {"measurement": "LUM: mean difference in luminescence (ATP content) relative to plate controls", "setting": "[11]; 0.5 µM", "value": 0.03036},
      {"measurement": "LUM: mean difference in luminescence (ATP content) relative to plate controls", "setting": "[11]; 1 µM", "value": 0.08336},
      {"measurement": "LUM: mean difference in luminescence (ATP content) relative to plate controls", "setting": "[11]; 5 µM", "value": 0.4462},
      {"measurement": "LUM: mean difference in luminescence (ATP content) relative to plate controls", "setting": "[11]; 10 µM", "value": 0.9963},
      {"measurement": "LUM: mean difference in luminescence (ATP content) relative to plate controls", "setting": "[11]; 25 µM", "value": 1.526},
      {"measurement": "LUM: mean difference in luminescence (ATP content) relative to plate controls", "setting": "[11]; 50 µM", "value": 1.59},
      {"measurement": "LUM: mean difference in luminescence (ATP content) relative to plate controls", "setting": "[11]; 75 µM", "value": 2.063},
      {"measurement": "LUM: mean difference in luminescence (ATP content) relative to plate controls", "setting": "[11]; 100 µM", "value": 2.457},
      {"measurement": "minimal effective concentration", "setting": "[11]; Caenorhabditis elegans, read-out: LEC LUM: lowest effect concentration for luminescence, a measure of nematode ATP content", "value": 5, "unit": "µM"},
      {"measurement": "EC50", "setting": "[12]", "value": "35700 ± 2410", "unit": "nM"},
      {"measurement": "LEC (lowest effect concentration), ATP assay", "setting": "[13]", "value": "≤ 10", "unit": "µM"}
    ]}
  ]
}
